According to ChEMBL document CHEMBL4507279, “Data for DCP probe BI-9627” (2021):

Columns and labels:
[1] = target: Alpha-1D adrenergic receptor (Homo sapiens, UniProt P25100); assay: GPCRScan assay: inhibition of Alpha1D; parameters: radioligand conc. used [nm] 0.3 – 1.0, parental cells stable
[2] = target: NUAK family SNF1-like kinase 2 (Homo sapiens) (UniProt Q9H093); details: Compound concentration 1000.0 nM
[3] = target: Protein-tyrosine kinase 2-beta (Homo sapiens) (UniProt Q14289); details: Compound concentration 1000.0 nM
[4] = target: Tyrosine-protein kinase BTK (Homo sapiens) (UniProt Q06187); details: Compound concentration 1000.0 nM
[5] = system: Mast/stem cell growth factor receptor Kit (Homo sapiens), P10721 [V559D,T670I]; details: Compound concentration 1000.0 nM
[6] = target: Aurora kinase A (Homo sapiens) (UniProt O14965); details: Compound concentration 1000.0 nM
[7] = target: Dual specificity mitogen-activated protein kinase kinase 1 (Homo sapiens) (UniProt Q02750); details: Compound concentration 1000.0 nM
[8] = target: Muscle, skeletal receptor tyrosine-protein kinase (Homo sapiens) (UniProt O15146); details: Compound concentration 1000.0 nM
[9] = target: cGMP-dependent protein kinase 1 (Homo sapiens) (UniProt Q13976); details: Compound concentration 1000.0 nM
[10] = system: Epidermal growth factor receptor (Homo sapiens), P00533 [L858R]; details: Compound concentration 1000.0 nM
[11] = target: Cyclin-dependent kinase 9 (Homo sapiens) (UniProt P50750); details: Compound concentration 1000.0 nM
[12] = target: Sodium/hydrogen exchanger 2 (Homo sapiens, UniProt Q9UBY0); assay: pHi change assay with SLC9A2
[13] = target: Serine/threonine-protein kinase Chk2 (Homo sapiens) (UniProt O96017); details: Compound concentration 1000.0 nM
[14] = target: Discoidin domain-containing receptor 2 (Homo sapiens) (UniProt Q16832); details: Compound concentration 1000.0 nM
[15] = target: Dual specificity protein kinase CLK4 (Homo sapiens) (UniProt Q9HAZ1); details: Compound concentration 1000.0 nM
[16] = target: Phosphatidylinositol 4,5-bisphosphate 3-kinase catalytic subunit gamma isoform (Homo sapiens) (UniProt P48736); details: Compound concentration 1000.0 nM
[17] = target: Serine/threonine-protein kinase MRCK alpha (Homo sapiens) (UniProt Q5VT25); details: Compound concentration 1000.0 nM
[18] = target: Cyclin-dependent kinase 13 (Homo sapiens) (UniProt Q14004); details: Compound concentration 1000.0 nM
[19] = target: Fibroblast growth factor receptor 4 (Homo sapiens) (UniProt P22455); details: Compound concentration 1000.0 nM
[20] = target: Macrophage-stimulating protein receptor (Homo sapiens) (UniProt Q04912); details: Compound concentration 1000.0 nM
[21] = target: Cyclin-dependent kinase 18 (Homo sapiens) (UniProt Q07002); details: Compound concentration 1000.0 nM
[22] = target: Cyclin-dependent kinase-like 3 (Homo sapiens) (UniProt Q8IVW4); details: Compound concentration 1000.0 nM
Rattus norvegicus = species on record: Rattus norvegicus; details: Compound concentration 10.0 uM
[23] = target: Serine/threonine-protein kinase NLK (Homo sapiens) (UniProt Q9UBE8); details: Compound concentration 1000.0 nM
[24] = target: Cyclin-dependent kinase 2 (Homo sapiens) (UniProt P24941); details: Compound concentration 1000.0 nM
[25] = target: Aurora kinase C (Homo sapiens) (UniProt Q9UQB9); details: Compound concentration 1000.0 nM
[26] = target: Calcium/calmodulin-dependent protein kinase type II subunit delta (Homo sapiens) (UniProt Q13557); details: Compound concentration 1000.0 nM
[27] = target: Interferon-induced, double-stranded RNA-activated protein kinase (Homo sapiens) (UniProt P19525); details: Compound concentration 1000.0 nM
[28] = target: Receptor-type tyrosine-protein kinase FLT3 (Homo sapiens) (UniProt P36888); details: Compound concentration 1000.0 nM
[29] = target: Myosin light chain kinase 2, skeletal/cardiac muscle (Homo sapiens) (UniProt Q9H1R3); details: Compound concentration 1000.0 nM
[30] = target: Activin receptor type-1B (Homo sapiens) (UniProt P36896); details: Compound concentration 1000.0 nM
[31] = system: Receptor-type tyrosine-protein kinase FLT3 (Homo sapiens), P36888 [UNDEFINED MUTATION]; details: Compound concentration 1000.0 nM
[32] = target: Calcium/calmodulin-dependent protein kinase kinase 2 (Homo sapiens) (UniProt Q96RR4); details: Compound concentration 1000.0 nM
[33] = target: Mu-type opioid receptor (Homo sapiens) (UniProt P35372); details: Compound concentration 10.0 uM
[34] = target: Dual specificity protein kinase CLK3 (Homo sapiens) (UniProt P49761); details: Compound concentration 1000.0 nM
[35] = system: Epidermal growth factor receptor (Homo sapiens), P00533 [G719C]; details: Compound concentration 1000.0 nM
[36] = target: Serine/threonine-protein kinase 25 (Homo sapiens) (UniProt O00506); details: Compound concentration 1000.0 nM
[37] = target: RAC-alpha serine/threonine-protein kinase (Homo sapiens) (UniProt P31749); details: Compound concentration 1000.0 nM
[38] = target: Transient receptor potential cation channel subfamily M member 6 (Homo sapiens) (UniProt Q9BX84); details: Compound concentration 1000.0 nM
[39] = target: Testis-specific serine/threonine-protein kinase 1 (Homo sapiens) (UniProt Q9BXA7); details: Compound concentration 1000.0 nM
[40] = target: Mitogen-activated protein kinase kinase kinase kinase 4 (Homo sapiens) (UniProt O95819); details: Compound concentration 1000.0 nM
[41] = target: Serine/threonine-protein kinase Nek6 (Homo sapiens) (UniProt Q9HC98); details: Compound concentration 1000.0 nM
[42] = target: Calcium/calmodulin-dependent protein kinase type II subunit beta (Homo sapiens) (UniProt Q13554); details: Compound concentration 1000.0 nM
[43] = target: Activated CDC42 kinase 1 (Homo sapiens) (UniProt Q07912); details: Compound concentration 1000.0 nM
[44] = target: Maternal embryonic leucine zipper kinase (Homo sapiens) (UniProt Q14680); details: Compound concentration 1000.0 nM
[45] = system: Phosphatidylinositol 4,5-bisphosphate 3-kinase catalytic subunit alpha isoform (Homo sapiens), P42336 [M1043I]; details: Compound concentration 1000.0 nM

Serine/threonine-protein kinase NLK (Homo sapiens), sequence (Q9UBE8 whole entry): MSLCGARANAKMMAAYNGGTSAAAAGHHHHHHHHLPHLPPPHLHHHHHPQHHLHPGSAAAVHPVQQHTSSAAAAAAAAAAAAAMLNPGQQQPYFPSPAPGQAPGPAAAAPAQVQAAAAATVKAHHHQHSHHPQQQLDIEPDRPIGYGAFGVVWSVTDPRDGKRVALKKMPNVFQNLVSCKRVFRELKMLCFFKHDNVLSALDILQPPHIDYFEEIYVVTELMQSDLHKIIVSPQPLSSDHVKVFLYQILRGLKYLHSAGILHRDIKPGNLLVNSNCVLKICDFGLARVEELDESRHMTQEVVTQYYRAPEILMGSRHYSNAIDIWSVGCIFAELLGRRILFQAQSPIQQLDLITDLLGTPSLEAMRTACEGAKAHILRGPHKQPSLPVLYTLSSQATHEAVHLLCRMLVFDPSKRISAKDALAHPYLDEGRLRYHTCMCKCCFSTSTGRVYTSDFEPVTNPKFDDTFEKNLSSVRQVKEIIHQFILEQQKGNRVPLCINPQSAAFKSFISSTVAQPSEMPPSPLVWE
Mu-type opioid receptor (Homo sapiens), sequence (P35372 whole entry): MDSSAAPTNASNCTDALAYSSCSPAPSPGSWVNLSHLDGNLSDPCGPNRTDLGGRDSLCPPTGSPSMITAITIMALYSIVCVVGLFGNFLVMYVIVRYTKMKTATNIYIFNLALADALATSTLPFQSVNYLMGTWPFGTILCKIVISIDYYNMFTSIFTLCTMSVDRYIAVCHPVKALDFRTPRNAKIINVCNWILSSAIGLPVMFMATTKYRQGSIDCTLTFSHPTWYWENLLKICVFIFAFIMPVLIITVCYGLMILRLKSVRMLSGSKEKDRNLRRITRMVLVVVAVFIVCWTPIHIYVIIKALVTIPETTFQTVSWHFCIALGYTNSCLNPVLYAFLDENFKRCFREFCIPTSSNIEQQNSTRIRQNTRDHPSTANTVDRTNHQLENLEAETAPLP
Phosphatidylinositol 4,5-bisphosphate 3-kinase catalytic subunit gamma isoform (Homo sapiens), sequence (P48736 whole entry, looked up, canonical isoform): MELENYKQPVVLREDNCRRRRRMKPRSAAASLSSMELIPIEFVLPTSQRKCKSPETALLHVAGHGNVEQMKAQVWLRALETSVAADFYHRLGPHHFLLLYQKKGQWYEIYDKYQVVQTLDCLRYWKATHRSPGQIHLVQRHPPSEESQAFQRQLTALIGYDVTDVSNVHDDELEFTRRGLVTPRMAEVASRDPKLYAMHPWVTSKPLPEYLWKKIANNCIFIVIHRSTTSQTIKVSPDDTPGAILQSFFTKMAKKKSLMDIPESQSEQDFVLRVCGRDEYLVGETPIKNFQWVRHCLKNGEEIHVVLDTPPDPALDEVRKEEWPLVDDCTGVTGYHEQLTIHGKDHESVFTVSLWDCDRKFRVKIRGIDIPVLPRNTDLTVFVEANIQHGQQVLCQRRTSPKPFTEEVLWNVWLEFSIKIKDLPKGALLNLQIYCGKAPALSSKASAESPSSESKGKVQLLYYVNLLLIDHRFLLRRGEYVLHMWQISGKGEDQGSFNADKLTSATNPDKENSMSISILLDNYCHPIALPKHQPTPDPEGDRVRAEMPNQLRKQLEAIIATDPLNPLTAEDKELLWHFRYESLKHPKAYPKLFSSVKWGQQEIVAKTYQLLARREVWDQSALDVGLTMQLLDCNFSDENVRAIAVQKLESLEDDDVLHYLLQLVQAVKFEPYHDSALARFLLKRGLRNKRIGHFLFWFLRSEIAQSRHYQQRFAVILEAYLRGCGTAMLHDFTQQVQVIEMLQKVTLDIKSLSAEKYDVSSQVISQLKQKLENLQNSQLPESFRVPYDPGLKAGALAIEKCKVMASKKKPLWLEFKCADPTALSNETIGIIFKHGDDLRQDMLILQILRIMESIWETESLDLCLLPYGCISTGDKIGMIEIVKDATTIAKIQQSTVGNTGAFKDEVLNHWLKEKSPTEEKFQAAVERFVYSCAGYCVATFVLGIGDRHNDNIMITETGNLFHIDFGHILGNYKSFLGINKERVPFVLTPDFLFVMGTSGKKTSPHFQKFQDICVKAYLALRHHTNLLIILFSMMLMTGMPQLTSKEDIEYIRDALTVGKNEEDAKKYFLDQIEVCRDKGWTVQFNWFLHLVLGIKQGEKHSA
Serine/threonine-protein kinase MRCK alpha (Homo sapiens), sequence (Q5VT25 whole entry): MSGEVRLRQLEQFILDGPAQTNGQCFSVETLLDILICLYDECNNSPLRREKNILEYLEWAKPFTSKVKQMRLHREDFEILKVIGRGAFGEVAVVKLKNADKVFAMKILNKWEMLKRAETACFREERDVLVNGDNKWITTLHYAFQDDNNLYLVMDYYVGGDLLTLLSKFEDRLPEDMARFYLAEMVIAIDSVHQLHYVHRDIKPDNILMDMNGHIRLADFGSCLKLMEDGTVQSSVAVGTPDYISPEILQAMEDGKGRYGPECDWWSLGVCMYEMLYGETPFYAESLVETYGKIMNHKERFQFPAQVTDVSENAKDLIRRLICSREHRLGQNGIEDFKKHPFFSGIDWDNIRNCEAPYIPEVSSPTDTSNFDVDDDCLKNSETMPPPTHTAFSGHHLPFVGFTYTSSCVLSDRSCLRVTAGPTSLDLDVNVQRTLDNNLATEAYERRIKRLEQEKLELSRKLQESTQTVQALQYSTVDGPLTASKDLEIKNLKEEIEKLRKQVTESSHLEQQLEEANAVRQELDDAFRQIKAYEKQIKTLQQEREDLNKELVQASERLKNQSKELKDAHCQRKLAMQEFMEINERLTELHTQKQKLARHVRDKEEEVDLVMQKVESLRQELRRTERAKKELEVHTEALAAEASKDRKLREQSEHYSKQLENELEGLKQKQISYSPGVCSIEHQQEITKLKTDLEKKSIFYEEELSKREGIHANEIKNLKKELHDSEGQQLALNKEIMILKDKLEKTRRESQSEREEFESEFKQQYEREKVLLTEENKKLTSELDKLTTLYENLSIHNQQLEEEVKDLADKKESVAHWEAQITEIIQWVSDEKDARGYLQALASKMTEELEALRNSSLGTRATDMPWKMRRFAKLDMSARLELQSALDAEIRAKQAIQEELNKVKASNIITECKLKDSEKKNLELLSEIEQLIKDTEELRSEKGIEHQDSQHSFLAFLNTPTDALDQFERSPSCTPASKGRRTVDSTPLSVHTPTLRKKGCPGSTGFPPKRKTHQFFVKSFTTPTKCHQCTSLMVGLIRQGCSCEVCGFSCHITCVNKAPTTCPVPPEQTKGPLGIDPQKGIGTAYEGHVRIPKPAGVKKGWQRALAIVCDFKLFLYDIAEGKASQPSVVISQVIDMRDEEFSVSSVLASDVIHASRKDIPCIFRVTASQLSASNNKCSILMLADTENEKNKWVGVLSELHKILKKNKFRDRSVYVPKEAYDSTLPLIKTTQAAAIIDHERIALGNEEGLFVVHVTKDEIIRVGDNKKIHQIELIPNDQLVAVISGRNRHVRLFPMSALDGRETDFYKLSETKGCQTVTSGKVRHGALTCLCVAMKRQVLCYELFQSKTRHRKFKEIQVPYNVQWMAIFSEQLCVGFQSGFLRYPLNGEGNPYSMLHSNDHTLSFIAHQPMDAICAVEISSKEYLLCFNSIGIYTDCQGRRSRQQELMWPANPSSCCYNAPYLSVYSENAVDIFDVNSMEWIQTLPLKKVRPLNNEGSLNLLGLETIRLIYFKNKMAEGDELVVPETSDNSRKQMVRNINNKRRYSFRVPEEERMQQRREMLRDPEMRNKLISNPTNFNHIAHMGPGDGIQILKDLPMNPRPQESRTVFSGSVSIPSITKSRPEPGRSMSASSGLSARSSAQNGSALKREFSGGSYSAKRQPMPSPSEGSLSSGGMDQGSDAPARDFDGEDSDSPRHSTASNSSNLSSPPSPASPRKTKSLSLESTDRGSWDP
Tyrosine-protein kinase BTK (Homo sapiens), sequence (Q06187 whole entry): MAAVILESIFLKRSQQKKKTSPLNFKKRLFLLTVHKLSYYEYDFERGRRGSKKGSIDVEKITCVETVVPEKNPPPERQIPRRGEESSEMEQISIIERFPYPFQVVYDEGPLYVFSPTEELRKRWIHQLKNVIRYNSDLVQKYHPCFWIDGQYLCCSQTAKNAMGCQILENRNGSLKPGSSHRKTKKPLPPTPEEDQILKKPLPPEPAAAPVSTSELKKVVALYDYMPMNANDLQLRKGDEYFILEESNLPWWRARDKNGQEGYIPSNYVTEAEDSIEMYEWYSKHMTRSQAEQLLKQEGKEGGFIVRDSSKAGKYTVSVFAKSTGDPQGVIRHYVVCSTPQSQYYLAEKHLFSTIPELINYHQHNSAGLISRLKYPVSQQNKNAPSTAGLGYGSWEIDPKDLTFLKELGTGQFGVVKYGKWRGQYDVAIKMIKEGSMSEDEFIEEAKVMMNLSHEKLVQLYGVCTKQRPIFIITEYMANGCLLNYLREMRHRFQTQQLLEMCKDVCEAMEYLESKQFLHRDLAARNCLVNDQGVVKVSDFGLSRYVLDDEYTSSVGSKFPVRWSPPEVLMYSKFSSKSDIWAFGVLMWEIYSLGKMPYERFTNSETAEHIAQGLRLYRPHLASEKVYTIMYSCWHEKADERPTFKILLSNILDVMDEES
Cyclin-dependent kinase-like 3 (Homo sapiens), sequence (Q8IVW4 whole entry, looked up): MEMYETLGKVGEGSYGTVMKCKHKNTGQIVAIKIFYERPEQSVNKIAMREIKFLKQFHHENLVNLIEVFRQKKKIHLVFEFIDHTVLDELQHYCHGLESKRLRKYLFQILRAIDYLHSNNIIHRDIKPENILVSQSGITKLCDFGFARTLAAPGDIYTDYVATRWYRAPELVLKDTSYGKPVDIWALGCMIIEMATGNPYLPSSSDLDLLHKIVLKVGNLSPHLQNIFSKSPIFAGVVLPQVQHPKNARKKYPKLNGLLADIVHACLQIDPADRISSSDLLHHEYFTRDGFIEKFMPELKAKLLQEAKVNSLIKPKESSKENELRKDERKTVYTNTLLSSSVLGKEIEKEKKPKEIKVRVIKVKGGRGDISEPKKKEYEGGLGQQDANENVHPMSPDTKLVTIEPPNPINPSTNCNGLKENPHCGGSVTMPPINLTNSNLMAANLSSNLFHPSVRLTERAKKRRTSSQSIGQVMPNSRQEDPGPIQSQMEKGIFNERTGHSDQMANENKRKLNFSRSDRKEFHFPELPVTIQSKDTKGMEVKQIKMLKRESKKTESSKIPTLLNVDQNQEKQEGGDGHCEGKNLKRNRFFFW

CC(=O)N1CCC(c2ccc(C(=O)NC(=N)N)cc2C(F)(F)F)CC1 [BI 9627]
Ki [1]: 10 µM
residual activity [2]: 100%
residual activity [3]: 100%
residual activity [4]: 100%
residual activity [5]: 100%
residual activity [6]: 87%
residual activity [7]: 97%
residual activity [8]: 100%
residual activity [9]: 100%
residual activity [10]: 100%
residual activity [11]: 100%
IC50 [12]: 0.231 µM (not active)
residual activity [13]: 100%
residual activity [14]: 100%
residual activity [15]: 100%
residual activity [16]: 100%
residual activity [17]: 100%
residual activity [18]: 100%
residual activity [19]: 100%
residual activity [20]: 97%
residual activity [21]: 94%
residual activity [22]: 100%
inhibition (Rattus norvegicus): 6.39%
residual activity [23]: 100%
residual activity [24]: 100%
residual activity [25]: 100%
residual activity [26]: 100%
residual activity [27]: 100%
residual activity [28]: 100%
residual activity [29]: 85%
residual activity [30]: 93%
residual activity [31]: 91%
residual activity [32]: 100%
inhibition [33]: 8.98%
residual activity [34]: 100%
residual activity [35]: 100%
residual activity [36]: 100%
residual activity [37]: 100%
residual activity [38]: 98%
residual activity [39]: 100%
residual activity [40]: 100%
residual activity [41]: 100%
residual activity [42]: 100%
residual activity [43]: 100%
residual activity [44]: 100%
residual activity [45]: 100%

CC(=O)N1CCC(c2ccc(C(=O)NC3=NCCN3)cc2C(F)(F)F)CC1 [BI 0054]
Ki [1]: 10 µM
residual activity [2]: 90%
residual activity [3]: 100%
residual activity [4]: 97%
residual activity [5]: 100%
residual activity [6]: 100%
residual activity [7]: 100%
residual activity [8]: 90%
residual activity [9]: 100%
residual activity [10]: 100%
residual activity [11]: 84%
IC50 [12]: > 10 µM (not active)
residual activity [13]: 100%
residual activity [14]: 96%
residual activity [15]: 100%
residual activity [16]: 100%
residual activity [17]: 100%
residual activity [18]: 100%
residual activity [19]: 88%
residual activity [20]: 80%
residual activity [21]: 100%
residual activity [22]: 100%
inhibition (Rattus norvegicus): -2.17%
residual activity [23]: 100%
residual activity [24]: 100%
residual activity [25]: 100%
residual activity [26]: 100%
residual activity [27]: 100%
residual activity [28]: 100%
residual activity [29]: 100%
residual activity [30]: 100%
residual activity [31]: 100%
residual activity [32]: 100%
inhibition [33]: -2.53%
residual activity [34]: 100%
residual activity [35]: 100%
residual activity [36]: 100%
residual activity [37]: 100%
residual activity [38]: 90%
residual activity [39]: 100%
residual activity [40]: 100%
residual activity [41]: 100%
residual activity [42]: 88%
residual activity [43]: 100%
residual activity [44]: 100%
residual activity [45]: 100%
